Values of other authors in patent US20140220152A1, “Compositions and Methods for Detecting, Treating, or Preventing Reductive Stress” (University of Utah Research Foundation, priority 2007, published 2014).

Tests used:
[1] = target: mammalian glucose-6-phosphate dehydrogenase (G6PDH) (Homo sapiens, UniProt P11413)
[2] = humans taking repeated doses of 250 mg disulfuram daily
[3] = rodents

Chain of mammalian glucose-6-phosphate dehydrogenase (G6PDH) (P11413 whole entry): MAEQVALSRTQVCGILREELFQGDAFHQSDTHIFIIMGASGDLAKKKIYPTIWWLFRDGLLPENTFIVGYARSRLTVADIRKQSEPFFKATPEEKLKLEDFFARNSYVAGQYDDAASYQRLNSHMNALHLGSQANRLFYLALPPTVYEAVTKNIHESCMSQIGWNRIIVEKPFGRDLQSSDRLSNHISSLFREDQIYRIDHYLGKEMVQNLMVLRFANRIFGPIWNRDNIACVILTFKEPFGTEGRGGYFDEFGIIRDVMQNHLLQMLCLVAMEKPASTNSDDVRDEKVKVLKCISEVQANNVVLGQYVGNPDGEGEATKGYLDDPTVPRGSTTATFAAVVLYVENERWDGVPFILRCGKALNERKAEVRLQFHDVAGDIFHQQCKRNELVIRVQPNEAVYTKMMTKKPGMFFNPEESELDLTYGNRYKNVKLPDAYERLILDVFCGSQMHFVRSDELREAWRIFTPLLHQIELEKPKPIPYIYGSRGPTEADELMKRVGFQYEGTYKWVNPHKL

SMILES | inhibition of mammalian G6PDH [1] | Steady-state serum levels [2] | LD50 [3] [mg/kg]
C[C@]12CC[C@H](O)C[C@@H]1CC[C@@H]1[C@@H]2CC[C@]2(C)C(=O)[C@H](Br)C[C@@H]12 [16α-bromoepiandrosterone] | more potent inhibitor of mammalian G6PDH than DHEA | – | –
C[C@]12CC[C@H](O)CC1=CC[C@@H]1[C@@H]2CC[C@]2(C)C(=O)CC[C@@H]12 [DHEA, Dehydroepiandrosterone] | potent non-competitive inhibitor | – | –
CCN(CC)C(=S)SSC(=S)N(CC)CC [Disulfuram, tetraalkylthiuram disulfide] | – | approximately 1.3 μM | 8600
